{
  "source": "paper PMC10743086",
  "about": "“Immunofluorescence-Based Assay for High-Throughput Analysis of Multidrug Resistance Markers in Non-Small Cell Lung Carcinoma Patient-Derived Cells” (Diagnostics, 2023)",
  "assay_type_in_all_cases": "cell-based, human",
  "key": {"[1]": {"tested_on": "Cancer cells (CK8/18+) of patient-derived NSCLC cultures", "test": "Cytotoxicity in patient-derived NSCLC cultures, cancer cells", "settings": "Homo sapiens, 168 h, 7 days treatment", "how_it_was_run": "(§1)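 First, tumour pieces are dissociated at 37 °C for 90 min and cultured at 37 °C, 5% CO2 until confluent. Then cells are seeded at 1000 per well and exposed to drugs for 7 days starting 72 h later. Finally, fixed cells are immunostained for CK8/18 plus ABCC1 or ABCG2.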"}, "[2]": {"tested_on": "ABCG2 expression in cancer cells (CK8/18+)", "test": "Immunofluorescence assay of ABCG2 expression in patient-derived NSCLC cultures", "settings": "7 days", "how_it_was_run": "as §1"}, "[3]": {"tested_on": "ABCB1 expression in NCI-H460 cells", "test": "Immunofluorescence assay of MDR marker ABCB1 expression", "settings": "five concentrations, 24 h", "how_it_was_run": "(§2)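 Compounds added 48 h after seeding, then 24 h exposure. Cells fixed in 4% paraformaldehyde, BSA-blocked, co-stained for ABCB1 with CK8/18 to separate cancer from stromal cells; 4x automated imaging. Cytotoxicity from cell-count scoring; ABCB1 expression from multi-wavelength cell scoring.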"}, "[4]": {"tested_on": "ABCB1 expression in MRC-5 cells", "test": "Immunofluorescence assay of MDR marker ABCB1 expression", "settings": "five concentrations, 24 h", "how_it_was_run": "as §2"}, "[5]": {"tested_on": "ABCB1 expression in NCI-H460/R cells", "test": "Immunofluorescence assay of MDR marker ABCB1 expression", "settings": "five concentrations, 24 h", "how_it_was_run": "as §2"}, "NCI-H460/R cells": {"tested_on": "NCI-H460/R cells", "test": "Cytotoxicity by immunofluorescence cell scoring (cell counts), multidrug-resistant NSCLC cell line", "settings": "for IC50: Homo sapiens, 24 h treatment", "how_it_was_run": "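ABCB1-overexpressing NCI-H460/R cells, doxorubicin-selected, treated 48 h after seeding for 24 h. Cytotoxicity from automated imaging cell counts after fixation and CK8/18 plus MDR-marker immunostaining, using cell-scoring analysis.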"}, "[6]": {"tested_on": "ABCC1 expression in cancer cells (CK8/18+)", "test": "Immunofluorescence assay of ABCC1 expression in patient-derived NSCLC cultures", "settings": "7 days", "how_it_was_run": "as §1"}, "[7]": {"tested_on": "Non-cancer cells (CK8/18-) of patient-derived NSCLC cultures", "test": "Cytotoxicity in patient-derived NSCLC cultures, non-cancer cells", "settings": "Homo sapiens, 168 h, 7 days treatment", "how_it_was_run": "as §1"}, "[8]": {"settings": "culture TR58, cancer cells (CK8/18+)"}, "[9]": {"settings": "culture TR64, cancer cells (CK8/18+)"}, "[10]": {"settings": "culture TR65, cancer cells (CK8/18+)"}, "[11]": {"settings": "culture TR84, cancer cells (CK8/18+)"}, "[12]": {"settings": "culture TR87, cancer cells (CK8/18+)"}, "[13]": {"settings": "NCI-H460/R (co-culture with MRC-5)"}},
  "data": [
    {"smiles": "CCC1=C[C@@H]2CN(C1)Cc1c([nH]c3ccccc13)[C@@](C(=O)OC)(c1cc3c(cc1OC)N(C)[C@H]1[C@@](O)(C(=O)OC)[C@H](OC(C)=O)[C@]4(CC)C=CCN5CC[C@]31[C@@H]54)C2", "note": "[Vinorelbine]", "values": [
      {"measurement": "IC50", "setting": "[1]; [8]", "result": 129, "unit": "nM"},
      {"measurement": "IC50", "setting": "[1]; [9]", "result": 172, "unit": "nM"},
      {"measurement": "IC50", "setting": "[1]; [10]", "result": "> 1000", "unit": "nM"},
      {"measurement": "IC50", "setting": "[1]; [11]", "result": 176, "unit": "nM"},
      {"measurement": "IC50", "setting": "[1]; [12]", "result": "> 1000", "unit": "nM"},
      {"measurement": "ABCG2 expression", "setting": "[2]; [8]", "result": "increase (An increase in ABCB1, ABCC1, or ABCG2 expression of at least 20% at a minimum of one concentration is shown in the table.)"},
      {"measurement": "ABCG2 expression", "setting": "[2]; [9]", "result": "increase (An increase in ABCB1, ABCC1, or ABCG2 expression of at least 20% at a minimum of one concentration is shown in the table.)"},
      {"measurement": "ABCG2 expression", "setting": "[2]; [10]", "result": "increase (An increase in ABCB1, ABCC1, or ABCG2 expression of at least 20% at a minimum of one concentration is shown in the table.)"},
      {"measurement": "ABCG2 expression", "setting": "[2]; [11]", "result": "increase (An increase in ABCB1, ABCC1, or ABCG2 expression of at least 20% at a minimum of one concentration is shown in the table.)"},
      {"measurement": "ABCG2 expression", "setting": "[2]; [12]", "result": "increase (An increase in ABCB1, ABCC1, or ABCG2 expression of at least 20% at a minimum of one concentration is shown in the table.)"},
      {"measurement": "ABCB1 Expression", "setting": "[3]; NCI-H460 (co-culture with MRC-5)", "result": "increase (An increase in ABCB1 expression of at least 20% at a minimum of one concentration is shown in the table.)"},
      {"measurement": "ABCB1 Expression", "setting": "[3]; NCI-H460 monoculture", "result": "increase (An increase in ABCB1 expression of at least 20% at a minimum of one concentration is shown in the table.)"},
      {"measurement": "ABCB1 Expression", "setting": "[4]; MRC-5 (co-culture with NCI-H460)", "result": "no change"},
      {"measurement": "ABCB1 Expression", "setting": "[4]; MRC-5 (co-culture with NCI-H460/R)", "result": "no change"},
      {"measurement": "ABCB1 Expression", "setting": "[4]; MRC-5 monoculture", "result": "no change"},
      {"measurement": "ABCB1 Expression", "setting": "[5]; [13]", "result": "no change"},
      {"measurement": "ABCB1 Expression", "setting": "[5]; NCI-H460/R monoculture", "result": "no change"},
      {"measurement": "IC50", "setting": "NCI-H460/R cells; [13]", "result": 838, "unit": "nM"},
      {"measurement": "IC50", "setting": "NCI-H460/R cells; NCI-H460/R monoculture", "result": 990, "unit": "nM"},
      {"measurement": "resistance of NCI-H460/R cells compared to the NCI-H460 cells", "setting": "NCI-H460/R cells; ratio of IC50 values, monocultures", "result": 27, "unit": "fold"},
      {"measurement": "ABCC1 expression", "setting": "[6]; [8]", "result": "no change"},
      {"measurement": "ABCC1 expression", "setting": "[6]; [9]", "result": "increase (An increase in ABCB1, ABCC1, or ABCG2 expression of at least 20% at a minimum of one concentration is shown in the table.)"},
      {"measurement": "ABCC1 expression", "setting": "[6]; [10]", "result": "increase (An increase in ABCB1, ABCC1, or ABCG2 expression of at least 20% at a minimum of one concentration is shown in the table.)"},
      {"measurement": "ABCC1 expression", "setting": "[6]; [11]", "result": "increase (An increase in ABCB1, ABCC1, or ABCG2 expression of at least 20% at a minimum of one concentration is shown in the table.)"},
      {"measurement": "ABCC1 expression", "setting": "[6]; [12]", "result": "increase (An increase in ABCB1, ABCC1, or ABCG2 expression of at least 20% at a minimum of one concentration is shown in the table.)"},
      {"measurement": "IC50", "setting": "[7]; culture TR58, non-cancer cells (CK8/18-)", "result": 160, "unit": "nM"},
      {"measurement": "IC50", "setting": "[7]; culture TR64, non-cancer cells (CK8/18-)", "result": 184, "unit": "nM"},
      {"measurement": "IC50", "setting": "[7]; culture TR65, non-cancer cells (CK8/18-)", "result": 32.8, "unit": "nM"},
      {"measurement": "IC50", "setting": "[7]; culture TR84, non-cancer cells (CK8/18-)", "result": 33.9, "unit": "nM"},
      {"measurement": "IC50", "setting": "[7]; culture TR87, non-cancer cells (CK8/18-)", "result": 361, "unit": "nM"}
    ]}
  ]
}
